Data published in paper PMC10113214 (Scientific Reports, 2023).

Experiments:
[1] = biological target: T1, Human neutrophil elastase (Homo sapiens, UniProt P08246); test: Elastase enzymatic cleavage; format: in vitro ADME; conditions: human neutrophil elastase 150 nM, peptide 1 mM, 30 min, 37 °C; for identified fragments of peptides after elastase digestion (most abundant MS signals): 300 rpm, 0.1 M Tris HCl, 500 mM NaCl, 0.05% Triton X-100, 20 mM CaCl2 pH 7.5, HPLC and MALDI or LC-MS
T1 construct: purchased Sigma-Aldrich
T1 sequence (P08246 30-267): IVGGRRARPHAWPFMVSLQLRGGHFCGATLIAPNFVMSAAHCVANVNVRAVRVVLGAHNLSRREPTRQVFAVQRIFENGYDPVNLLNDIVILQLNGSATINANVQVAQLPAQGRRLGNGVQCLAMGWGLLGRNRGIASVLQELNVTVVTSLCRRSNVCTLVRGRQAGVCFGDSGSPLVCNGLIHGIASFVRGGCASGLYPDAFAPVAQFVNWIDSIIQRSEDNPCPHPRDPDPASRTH
Procedure: Human neutrophil elastase (EC No. 3.4.21.37, Sigma-Aldrich) was used to study peptide susceptibility to that enzyme. Peptides were dissolved in 0.1 M Tris HCl, 500 mM NaCl, 0.05% Triton X-100, 20 mM CaCl2 pH 7.5 buffer mixture. Peptides (final concentration 1 mM) were mixed with the enzyme (final concentration 150 nM) and incubated for 30 min. in a thermoshaker (37 °C, 300 rpm). The reaction was stopped by a 10% aqueous solution of TFA. The results were analyzed using HPLC and MALDI or LC–MS. Details of this experiment are described in the Supplementary Data.

[2] = Circular dichroism, conformation and thermal stability of β-sheet; format: physicochemical; conditions: CD
Procedure: The molar ellipticity of peptides were registered on a Jasco J-815 spectrometer (JASCO, Easton, MD, USA). Solutions of peptide hybrids were prepared in water solution (10 mg/ml), incubated at 37 °C for 4 h and then diluted to a final concentration of 0.20 mg/ml. CD spectra measurements were performed at 25 °C, 30 °C, 35 °C, 40 °C, 45 °C, 50 °C, 55 °C and 60 °C, at 190–260 nm wavelength and at a scan speed of […]. The background of the solvent was subtracted. The results are presented as the relationship of mean residue molar ellipticity (MRME) [deg × cm^2 × dmol^−1] to wavelength [nm]. Measurements were performed in triplicate. In order to determine the peptides’ denaturation temperatures, the molar ellipticity rotatory angle at a fixed wavelength of 196 nm, [θ]196, was measured as a function of temperature (max 100 °C). CD temperature measurements were carried out up to a temperature of 100 °C. Above this temperature, the cure was extrapolated with GraphPad Prism 8 software using the 4PL curve fit function. The denaturation temperature was determined as the temperature at which the change in ellipticity (θ) was half complete.

dorsal skin wounds = test: Histological evaluation of skin samples; format: in vivo, BALB/c mice; conditions: Masson’s trichrome, versus RADA16-I group, Mann–Whitney U test
Excerpt: Mice were sacrificed on day 18 post-injury. In addition, for investigation of early wound healing, 1 mouse from each group was sacrificed on day 4 post-injury. The skin samples were collected and stored in formalin. Skin samples embedded in paraffin were cut into 5 µm sections following staining with Masson’s trichrome (green: collagen, dermis; grey or dark grey: cell nuclei, epidermis, sebaceous glands; dark red: keratinized epidermis, muscle, hair; light red: red blood cells). Image acquisitions were made with a Leica DM IL microscope. To evaluate the collagen density in dorsal skin wounds, we employed the method of colour deconvolution described by Ruifrok and Johnston[52]. Using the ImageJ software with a colour deconvolution plug-in[53], we analyzed between 7 and 9 images of dorsal skin samples stained with Masson’ trichrome, representing 2–3 mice per group. The results are presented as mean relative collagen density.

Compound: CC(=O)N[C@@H](CCCNC(=N)N)C(=O)N[C@@H](C)C(=O)N[C@@H](CC(=O)O)C(=O)N[C@@H](C)C(=O)N[C@@H](CCCNC(=N)N)C(=O)N[C@@H](C)C(=O)N[C@@H](CC(=O)O)C(=O)N[C@@H](C)C(=O)N[C@@H](CCCNC(=N)N)C(=O)N[C@@H](C)C(=O)N[C@@H](CC(=O)O)C(=O)N[C@@H](C)C(=O)N[C@@H](CCCNC(=N)N)C(=O)N[C@@H](C)C(=O)N[C@@H](CC(=O)O)C(=O)N[C@@H](C)C(=O)NCC(=O)NCC(=O)NCC(=O)N[C@@H](C)C(=O)N[C@@H](C)C(=O)N1CCC[C@H]1C(=O)N[C@H](C(=O)NCC(=O)NCC(=O)NCC(=O)N[C@@H](CCCCN)C(=O)NCC(=O)N[C@@H](Cc1c[nH]cn1)C(=O)N[C@@H](CCCCN)C(N)=O)C(C)C [RADA-KGHK, Ac-(Arg-Ala-Asp-Ala)4-Gly-Gly-Gly-Ala-Ala-Pro-Val-Gly-Gly-Gly-Lys-Gly-His-Lys-NH2]
- identified fragments of peptides after elastase digestion (most abundant MS signals) ([1]; fragment Ac-(RADA)4-GGG-AAPV-COOH): Ac-(RADA)4-GGG-AAPV-COOH
- identified fragments of peptides after elastase digestion (most abundant MS signals) ([1]; fragment NH2-APV-GGG-KGHK-NH2): NH2-APV-GGG-KGHK-NH2
- identified fragments of peptides after elastase digestion (most abundant MS signals) ([1]; fragment NH2-PV-GGG-KGHK-NH2): NH2-PV-GGG-KGHK-NH2
- main / predominant fragments of elastase digestion ([1]; pH 7.5 buffer, HPLC, mass spectrometry): Ala^21Pro^22Val^23Gly^24Gly^25Gly^26Lys^27Gly^28His^29Lys^30
- temperature of first disruption of the β-sheets ([2]; [θ]196 nm as function of temperature 4–100 °C, gel 10 mg/ml in water, 37 °C 4 h, diluted to 0.20 mg/ml, decrease of molar ellipticity): ~61 °C
- transition temperature (half β-conformation, half disordered) ([2]; [θ]196 nm vs temperature, 0.20 mg/ml in water, above 100 °C curve extrapolated, 4PL fit): about 92 °C
- epithelium (membrane-like structure) thickness on day 4 post-injury (dorsal skin wounds): significantly thicker epithelium
